# Patent US20200138825A1, “METHOD OF TREATING MALIGNANT RHABDOID TUMOR OF THE OVARY (MRTO)/SMALL CELL CANCER OF THE OVARY OF THE HYPERCALCEMIC TYPE(SCCOHT) WITH AN EZH2 INHIBITOR” (Epizyme, Inc., priority 2015, published 2020)
# Values joined by “and” are separate entries in the source; they are usually repeats but may differ in a detail not shown here. Equal entries are not always repeated. “Also recorded” adds a separate entry of the source. Marks after values point to notes of the source that are not given here.
# Columns and labels:
# TOV112D xenograft tumors = test: SCCOHT xenograft model (TOV112D); type: in vivo
# Protocol: EZH2 target inhibition was measured by H3K27me3 levels in xenograft tissue collected on day 14 (FIG. 20B). Each point represents the ratio of H3K27me3 to total H3 from the tumor of a single animal.
# [1] = system: cell lines and xenografts deficient in INI1 (SNF5/SMARCB1); conditions: Knutson et al. PNAS 2013; cited from earlier work
# [2] = system: JHOC-5, TYKNU, PA-1, OAW42, ES-2, COV362 cell lines; test: Long-term proliferation assays, single-deficient or WT ovarian cell lines; type: cell-based
# MRT and MRTO/SCCOHT = test: Assessment of clinical activity in MRT and MRTO/SCCOHT; type: in vivo, human; conditions: MRT and MRTO/SCCOHT following treatment
# [3] = system: SMARCA4-negative thoracic sarcoma; test: Phase 1 clinical activity, SMARCA4-negative thoracic sarcoma; type: in vivo, human; conditions: 1600 mg BID
# Protocol: (§1) Table 2 describes a Phase 1 clinical trial design (sponsor protocol no.: E7438-G000-001, ClinicalTrials.gov identifier: NCT01897571). The study population included subjects with relapsed or refractory solid tumors or B-cell lymphoma. Subjects received a 3+3 dose-escalation in expansion cohorts receiving 800 mg BID and 1600 mg BID, respectively, or a cohort for ascertaining the effect of food on dosing at 400 mg BID. The primary endpoint was a determination of recommended phase II dose (RP2D)/maximum tolerated dose (MTD). Secondary endpoints included safety, pharmacokinetics (PK), pharmacodynamics (PD) and tumor response, assessed every 8 wks.
# [4] = human, in vivo
# Protocol: as §1
# [5] = system: INI1-negative epithelioid sarcoma; test: Phase 1 clinical activity, INI1-negative epithelioid sarcoma; type: in vivo, human
# Protocol: as §1
# [6] = system: INI1-negative malignant rhabdoid tumor; test: Phase 1 clinical activity, INI1-negative malignant rhabdoid tumor; type: in vivo, human; conditions: for Best Response / Time on study: INI1-negative malignant rhabdoid tumor
# Protocol: as §1
# [7] = system: Dual SMARCA2 and SMARCA4 deficient ovarian cell lines; conditions: four SMARCA2-deficient and SMARCA4-deficient cell lines
# Bin-67 xenograft tumors = test: SCCOHT xenograft model (Bin-67); type: in vivo
# Protocol: EZH2 target inhibition was assessed by H3K27me3 levels in xenograft tissue collected on day 18 (FIG. 18B). Each point represents the ratio of H3K27me3 to total H3 from the tumor of a single animal.
# COV434 xenograft tumors = test: SCCOHT xenograft model (COV434); type: in vivo
# Protocol: After day 28, a portion of the COV434 xenograft cohort were retained to monitor for tumor regrowth while under no treatment, of which there was none. EZH2 target inhibition was assessed by H3K27me3 levels in xenograft tissue collected on day 28 (FIG. 19B). Each point represents the ratio of H3K27me3 to total H3 from the tumor of a single animal.
# [8] = system: SMARCA4-negative malignant rhabdoid tumor of ovary (SCCOHT); test: Phase 1 clinical activity, SMARCA4-negative malignant rhabdoid tumor of ovary (SCCOHT); type: in vivo, human; conditions: for Tumor size: person, 1600 mg BID oral tablet
# Protocol: as §1
# Oral bioavailability = conditions: in vivo
# [9] = system: H3K27me3 in INI1- and SMARCA4-negative tumors; test: Pharmacodynamic H3K27me3 inhibition in tumor tissue of patients; type: in vivo, human
# [10] = 800 mg BID, + = remains on study
smiles,measurement,setting,value
CCN(c1cc(-c2ccc(CN3CCOCC3)cc2)cc(C(=O)NCc2c(C)cc(C)[nH]c2=O)c1C)C1CCOCC1 [tazemetostat],tumor volume compared to vehicle,"TOV112D xenograft tumors; 14 days, twice daily",statistically significant differences in volume compared to vehicle
same,H3K27me3 in xenograft tumors,TOV112D xenograft tumors; after 14 days of treatment,reduction of H3K27me3
same,antitumor activity,G401 xenograft,antitumor activity
same,sensitivity of INI1-deficient cell lines and xenografts,[1],profound sensitivity and durable regressions
same,sensitivity,[2],Lower sensitivity
same,clinical activity,MRT and MRTO/SCCOHT,"stable disease for at least six months, partial remission or complete remission"
same,Best Response,[3],PD week 5
same,Time on study,[3],6 weeks
same,"Anemia, All Events, All Grades",[4],7
same,"Anemia, All Events, Grade n",[4],1
same,"Anemia, All Treatment-Related, All Grades",[4],3
same,"Anemia, All Treatment-Related, Grade n",[4],0
same,"Asthenia, All Events, All Grades",[4],28
same,"Asthenia, All Events, Grade n",[4],1
same,"Asthenia, All Treatment-Related, All Grades",[4],12
same,"Asthenia, All Treatment-Related, Grade n",[4],0
same,"Constipation, All Events, All Grades",[4],7
same,"Constipation, All Events, Grade n",[4],0
same,"Constipation, All Treatment-Related, All Grades",[4],2
same,"Constipation, All Treatment-Related, Grade n",[4],0
same,"Decreased appetite, All Events, All Grades",[4],11
same,"Decreased appetite, All Events, Grade n",[4],3
same,"Decreased appetite, All Treatment-Related, All Grades",[4],3
same,"Decreased appetite, All Treatment-Related, Grade n",[4],1
same,"Dysgeusia, All Events, All Grades",[4],5
same,"Dysgeusia, All Events, Grade n",[4],0
same,"Dysgeusia, All Treatment-Related, All Grades",[4],5
same,"Dysgeusia, All Treatment-Related, Grade n",[4],0
same,"Dyspnea, All Events, All Grades",[4],8
same,"Dyspnea, All Events, Grade n",[4],0
same,"Dyspnea, All Treatment-Related, All Grades",[4],0
same,"Dyspnea, All Treatment-Related, Grade n",[4],0
same,"Elevated LFTs, All Events, All Grades",[4],2
same,"Elevated LFTs, All Events, Grade n",[4],1
same,"Elevated LFTs, All Treatment-Related, All Grades",[4],0
same,"Elevated LFTs, All Treatment-Related, Grade n",[4],1
same,"Hypertension, All Events, All Grades",[4],3
same,"Hypertension, All Events, Grade n",[4],1
same,"Hypertension, All Treatment-Related, All Grades",[4],1
same,"Hypertension, All Treatment-Related, Grade n",[4],1
same,"Muscle Spasms, All Events, All Grades",[4],5
same,"Muscle Spasms, All Events, Grade n",[4],0
same,"Muscle Spasms, All Treatment-Related, All Grades",[4],2
same,"Muscle Spasms, All Treatment-Related, Grade n",[4],0
same,"Nausea, All Events, All Grades",[4],8
same,"Nausea, All Events, Grade n",[4],0
same,"Nausea, All Treatment-Related, All Grades",[4],7
same,"Nausea, All Treatment-Related, Grade n",[4],0
same,"Neutropenia, All Events, All Grades",[4],2
same,"Neutropenia, All Events, Grade n",[4],1
same,"Neutropenia, All Treatment-Related, All Grades",[4],1
same,"Neutropenia, All Treatment-Related, Grade n",[4],1
same,"Thrombocytopenia, All Events, All Grades",[4],10
same,"Thrombocytopenia, All Events, Grade n",[4],2
same,"Thrombocytopenia, All Treatment-Related, All Grades",[4],6
same,"Thrombocytopenia, All Treatment-Related, Grade n",[4],1
same,"Vomiting, All Events, All Grades",[4],6
same,"Vomiting, All Events, Grade n",[4],0
same,"Vomiting, All Treatment-Related, All Grades",[4],3
same,"Vomiting, All Treatment-Related, Grade n",[4],0
same,Best Response,[5]; 400 mg BID,PD week 8
same,Time on study,[5]; 400 mg BID,11 weeks
same,Best Response,[5]; 800 mg BID,partial remission (PR); also recorded: PR week 8; also recorded: SD week 8
same,Time on study,[5]; [10],25+ weeks and 24+ weeks
same,Best Response,[6]; 400 mg BID,SD week 8
same,Time on study,"[6]; 400 mg BID, + = remains on study",12+ weeks
same,Best Response,[6]; 800 mg BID,complete remission (CR); also recorded: CR week 8*; also recorded: PD week 8
same,Time on study,[6]; [10],65+ weeks and 35 weeks
same,Time on study,[6]; 1600 mg BID,16 weeks and 17 weeks
same,response,"[6]; patient with INI1-negative (IHC) relapsed malignant rhabdoid tumor, Phase 1",complete response
same,inhibition of cell growth,[7],Dose-dependent inhibition of cell growth
same,tumor volume compared to vehicle,Bin-67 xenograft tumors; after 18 days,statistically significant differences in volume compared to vehicle
same,H3K27me3 in xenograft tumors,Bin-67 xenograft tumors; after 18 days of treatment,reduction of H3K27me3
same,tumor volume compared to vehicle,COV434 xenograft tumors; after 28 days,statistically significant differences in volume compared to vehicle
same,tumor regrowth while under no treatment,COV434 xenograft tumors; after day 28,none
same,clinical activity,"[8]; Phase 1, two patients with SCCOHT (SMARCA4-negative)",Clinical activity was observed
same,Best Response,"[8]; SMARCA4-negative SCCOHT, 1600 mg BID",PR week 8*; also recorded: SD week 8
same,Time on study,"[8]; SMARCA4-negative SCCOHT, 1600 mg BID, + = remains on study",25+ weeks and 26+ weeks
same,Tumor size,[8]; after 8 weeks,decreased from baseline
same,Tumor size,[8]; after 16 weeks,further decreased from the 8 week measurement
same,oral bioavailability,Oral bioavailability,orally bioavailable
same,pharmacodynamics inhibition of HeK27me3 in tumor tissue,[9],induces pharmacodynamics inhibition of HeK27me3
